Where only a bound is given, the exact number is not on record here.

Here are results for 24 molecules from patent US11806350B2, “Prevention and/or treatment of CNS disorders” (ILDONG PHARMACEUTICAL CO., LTD., priority 2020, dated 2023).

The target in test [1] is T1, Human recombinant adenosine A2A receptors (Homo sapiens, UniProt P29274).
T1 construct: expressed in transfected cells; host or cells: HEK-293 cells (membrane preparation)
Description: Human adenosine A2A receptor binding assay ([3H]CGS-21680). To be noted: for Ki: membranes of HEK-293 cells, 50 nM [3H]CGS-21680, 90 minutes at 25° C., read-out: hA2A Ki; for activity as dual antagonists of both A2A and A1 receptors: summary in words of the A2A and A1 binding results of Table 2. As for the experimental part: 2.2 Human Adenosine A2A Receptor Binding Assay
Test compound is weighed, dissolved in DMSO to make a stock solution of 10 mM, diluted with DMSO to prepare working solutions, then 100-fold diluted to the indicated concentrations. Human recombinant adenosine A2A receptors expressed in HEK-293 cells were used to prepare membranes in incubation buffer (50 mM Tris-HCl, pH 7.4, 10 mM MgCl2, 1 mM EDTA, 2 U/ml Adenosine Deaminase). Test compound or vehicle (2.2 μL) was added in 200 μL of membranes and incubated with 20 μL of 50 nM [^3H] […] Non-specific binding was estimated in the presence of 50 μM NECA (5′-N-ethylcarboxamidoadenosine). The incubation was stopped by vacuum filtration onto 0.3% PEI (polyethylenimine) presoaked GF/B filters using a harvester followed by four washes with ice-cold 50 mM Tris-HCl, pH 7.4, and the radioactivity on GF/B filtermats counted in a scintillation counter (PerkinElmer TOPCOUNT™) to determine [^3H] […] Final concentration of vehicle DMSO is 1%.
(§1) Data is fitted using the non-linear curve fitting routines in Meth-IQ software (ID Business Solutions Ltd., UK). IC50 is converted to Ki by Cheng-Prusoff equation: Ki=IC50/(1+[L]/KD) where [L] is concentration of radiolabeled ligand used in the assay.

Test [2] addresses T2, Human recombinant adenosine A1 receptors (Homo sapiens, UniProt P30542).
T2 construct: expressed in transfected cells; host or cells: CHO-K1 cells (membrane preparation)
T2 sequence (P30542 1-326): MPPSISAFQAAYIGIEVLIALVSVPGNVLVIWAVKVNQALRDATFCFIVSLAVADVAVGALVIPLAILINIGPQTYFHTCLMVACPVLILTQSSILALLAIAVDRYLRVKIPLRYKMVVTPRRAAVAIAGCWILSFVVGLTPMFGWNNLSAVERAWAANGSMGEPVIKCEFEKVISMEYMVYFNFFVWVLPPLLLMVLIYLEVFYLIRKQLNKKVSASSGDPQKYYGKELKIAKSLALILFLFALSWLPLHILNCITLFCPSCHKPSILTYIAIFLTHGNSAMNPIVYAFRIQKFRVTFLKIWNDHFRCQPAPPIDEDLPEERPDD
Briefly: Human adenosine A1 receptor binding assay ([3H]DPCPX). To be noted: membranes of CHO-K1 cells, 1 nM [3H]DPCPX, 90 minutes at 25° C.; read-out: hAl Ki. As for the experimental part:
2.1 Human Adenosine A1 Receptor Binding Assay
Test compound is weighed, dissolved in DMSO to make a stock solution of 10 mM, diluted with DMSO to prepare working solutions, then 100-fold diluted to the indicated concentrations. Human recombinant adenosine A1 receptors expressed in CHO-K1 cells were used to prepare membranes in incubation buffer (20 mM HEPES (4-(2-hydroxyethyl)-1-piperazineethanesulfonic acid) pH 7.4, 10 mM MgCl2, 100 mM NaCl). Test compound or vehicle (2.2 μL) was added in 200 μL of membranes and incubated with 20 μL of 1 nM [^3H] DPCPX (8-cyclopentyl-1,3-dipropylxanthine) for 90 minutes at 25° C. Non-specific binding was estimated in the presence of 100 μM R(−)-PIA ((R)—N-(1-methyl-2-phenylethyl)adenosine). The incubation was stopped by vacuum filtration onto 0.3% PEI (polyethylenimine) presoaked GF/B filters using a harvester followed by four washes with ice-cold 50 mM Tris-HCl, pH 7.4, and the radioactivity on GF/B filtermats counted in a scintillation counter (PerkinElmer Topcount™) to determine [^3H] DPCPX specifically bound. Final concentration of vehicle DMSO is 1%.
as §1

T1 sequence (P29274 whole entry): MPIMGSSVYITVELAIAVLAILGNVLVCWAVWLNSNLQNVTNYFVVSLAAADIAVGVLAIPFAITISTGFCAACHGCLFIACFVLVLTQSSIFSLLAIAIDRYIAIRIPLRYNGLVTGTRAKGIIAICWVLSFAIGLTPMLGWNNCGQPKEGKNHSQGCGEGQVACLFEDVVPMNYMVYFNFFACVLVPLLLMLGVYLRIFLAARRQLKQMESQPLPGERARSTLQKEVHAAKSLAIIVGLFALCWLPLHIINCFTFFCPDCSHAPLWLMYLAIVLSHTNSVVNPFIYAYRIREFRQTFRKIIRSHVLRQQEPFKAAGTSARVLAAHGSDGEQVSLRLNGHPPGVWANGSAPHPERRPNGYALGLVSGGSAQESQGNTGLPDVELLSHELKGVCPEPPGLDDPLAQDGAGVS

The term Ki denotes the dissociation constant of the complex between target and ligand, obtained from inhibition or displacement. `N#Cc1cccc(-c2nc(N)nc3c2cnn3Cc2ccc(N)cc2F)c1F` [Compound 203, 3-(6-amino-1-(4-amino-2-fluorobenzyl)-1H-pyrazolo[3,4-d]pyrimidine-4-yl)-2-fluorobenzonitrile]: in test [1], the Ki is less than 20 nM; the “activity as dual antagonists of both A2A and A1 receptors” value (from here on “activity as dual antagonists”) is given as “potent activity as dual antagonists”. In addition, the Ki in test [2] is not above 100 nM.

With `Cc1cc(Cn2ncc3c(-c4cccc(C#N)c4)nc(N)nc32)ccc1N` [Compound 204, 3-(6-amino-1-(4-amino-3-methylbenzyl)-1H-pyrazolo[3,4-d]pyrimidine-4-yl)benzonitrile], the Ki in test [1] was less than 20 nM; in test [2], 100 to 1000 nM.

As for `Cc1cc(Cn2ncc3c(-c4cccc(C#N)c4F)nc(N)nc32)ccc1N` [Compound 206, 3-(6-amino-1-(4-amino-3-methylbenzyl)-1H-pyrazolo[3,4-d]pyrimidine-4-yl)-2-fluorobenzonitrile], in test [1], the Ki was less than 20 nM; the “activity as dual antagonists” value is on record as “potent activity as dual antagonists”. For the same molecule, in test [2], the Ki was not above 100 nM.

On to `N#Cc1cccc(-c2nc(N)nc3c2cnn3Cc2c(F)cc(N)cc2F)c1` [Compound 207, 3-(6-amino-1-(4-amino-2,6-difluorobenzyl)-1H-pyrazolo[3,4-d]pyrimidine-4-yl)benzonitrile], for which, in test [1], the inhibition constant Ki was less than 20 nM; the “activity as dual antagonists” value is on record as “potent activity as dual antagonists”. For the same molecule, in test [2], the Ki was not above 100 nM.

Consider `N#Cc1cccc(-c2nc(N)nc3c2cnn3Cc2ccc(N)cc2F)c1` [Compound 209, 3-(6-amino-1-(4-amino-2-fluorobenzyl)-1H-pyrazolo[3,4-d]pyrimidine-4-yl)benzonitrile], for which the Ki was less than 20 nM in test [1] and 100 to 1000 nM in test [2].

For the molecule `N#Cc1cccc(-c2nc(N)nc3c2cnn3Cc2ccc(N)c(C(F)(F)F)c2)c1F` [Compound 211, 3-(6-amino-1-(4-amino-3-(trifluoromethyl)benzyl)-1H-pyrazolo[3,4-d]pyrimidine-4-yl)-2-fluorobenzonitrile], the Ki is less than 20 nM in test [1] and not above 100 nM in test [2]. In test [1], the “activity as dual antagonists” value is “potent activity as dual antagonists”.

Turning to `N#Cc1cccc(-c2nc(N)nc3c2cnn3Cc2c(F)cccc2F)c1F` [Compound 213, 3-(6-amino-1-(2,6-difluorobenzyl)-1H-pyrazolo[3,4-d]pyrimidine-4-yl)-2-fluorobenzonitrile], the inhibitory constant (Ki) is less than 20 nM in test [1] and not above 100 nM in test [2]. The “activity as dual antagonists” value in test [1] is recorded as “potent activity as dual antagonists”.

Turning to `N#Cc1cccc(-c2nc(N)nc3c2cnn3Cc2ccc(N)cc2)n1` [Compound 215, 6-(6-amino-1-(4-aminobenzyl)-1H-pyrazolo[3,4-d]pyrimidine-4-yl)picolinonitrile], the results for the Ki in test [1] and in test [2] were 20 to 200 nM and 100 to 1000 nM, respectively.

`N#Cc1ccnc(-c2nc(N)nc3c2cnn3Cc2ccc(N)cc2)c1` [Compound 216, 2-(6-amino-1-(4-aminobenzyl)-1H-pyrazolo[3,4-d]pyrimidine-4-yl)isonicotinonitrile]: the Ki lay in the range of 200 to 1000 nM in test [1] and 1000 to 10000 nM in test [2].

For the molecule `N#Cc1cncc(-c2nc(N)nc3c2cnn3Cc2ccc(N)cc2)c1` [Compound 217, 5-(6-amino-1-(4-aminobenzyl)-1H-pyrazolo[3,4-d]pyrimidine-4-yl)nicotinonitrile], the Ki is 1000 to 5000 nM in test [1] and more than 10000 nM in test [2].

For `N#Cc1cc(-c2nc(N)nc3c2cnn3Cc2ccc(N)cc2)ccn1` [Compound 218, 4-(6-amino-1-(4-aminobenzyl)-1H-pyrazolo[3,4-d]pyrimidine-4-yl)picolinonitrile], the Ki in test [1] lay within 1000 to 5000 nM; in test [2], 1000 to 10000 nM.

With `N#Cc1cccc(-c2nc(N)nc3c2cnn3Cc2ccc(N)cc2F)n1` [Compound 219, 6-[6-amino-1-[(4-amino-2-fluoro-phenyl)methyl]pyrazolo[3,4-d]pyrimidine-4-yl]pyridine-2-carbonitrile], the Ki in test [1] was less than 20 nM; in test [2], 100 to 1000 nM.

Consider `N#Cc1ccnc(-c2nc(N)nc3c2cnn3Cc2ccc(N)cc2F)c1` [Compound 220, 2-(6-amino-1-(4-amino-2-fluorobenzyl)-1H-pyrazolo[3,4-d]pyrimidine-4-yl)isonicotinonitrile], for which the values for the Ki in test [1] and in test [2] were 20 to 200 nM and 100 to 1000 nM, respectively.

Consider `N#Cc1cncc(-c2nc(N)nc3c2cnn3Cc2ccc(N)cc2F)c1` [Compound 221, 5-[6-amino-1-[(4-amino-2-fluoro-phenyl)methyl]pyrazolo[3,4-d]pyrimidine-4-yl]pyridine-3-carbonitrile], for which the figures for the inhibition constant Ki in test [1] and in test [2] were 1000 to 5000 nM and more than 10000 nM, respectively.

With `N#Cc1cc(-c2nc(N)nc3c2cnn3Cc2ccc(N)cc2F)ccn1` [Compound 222, 4-(6-amino-1-(4-amino-2-fluorobenzyl)-1H-pyrazolo[3,4-d]pyrimidine-4-yl)picolinonitrile], the figures for the Ki in test [1] and in test [2] were 1000 to 5000 nM and more than 10000 nM, respectively.

As for `N#Cc1cccc(-c2nc(N)nc3c2cnn3Cc2c(F)cc(N)cc2F)n1` [Compound 223, 6-[6-amino-1-[(4-amino-2,6-difluoro-phenyl)methyl]pyrazolo[3,4-d]pyrimidine-4-yl]pyridine-2-carbonitrile], the Ki in test [1] is less than 20 nM; in test [2], 100 to 1000 nM.

On to `N#Cc1ccnc(-c2nc(N)nc3c2cnn3Cc2c(F)cc(N)cc2F)c1` [Compound 224, 2-[6-amino-1-[(4-amino-2,6-difluoro-phenyl)methyl]pyrazolo[3,4-d]pyrimidine-4-yl]pyridine-4-carbonitrile], for which the Ki in test [1] fell in the range of 20 to 200 nM; in test [2], 100 to 1000 nM.

Turning to `N#Cc1cncc(-c2nc(N)nc3c2cnn3Cc2c(F)cc(N)cc2F)c1` [Compound 225, 5-[6-amino-1-[(4-amino-2,6-difluoro-phenyl)methyl]pyrazolo[3,4-d]pyrimidine-4-yl]pyridine-3-carbonitrile], the Ki in test [1] was 1000 to 5000 nM; in test [2], 1000 to 10000 nM.

Turning to `N#Cc1cc(-c2nc(N)nc3c2cnn3Cc2c(F)cc(N)cc2F)ccn1` [Compound 226, 4-(6-amino-1-(4-amino-2,6-difluorobenzyl)-1H-pyrazolo[3,4-d]pyrimidine-4-yl)picolinonitrile], the Ki in test [1] is 1000 to 5000 nM; in test [2] it was more than 10000 nM.

On to `Cc1cc(Cn2ncc3c(-c4cccc(C#N)n4)nc(N)nc32)ccc1N` [Compound 227, 6-(6-amino-1-(4-amino-3-methylbenzyl)-1H-pyrazolo[3,4-d]pyrimidine-4-yl)picolinonitrile], for which the Ki in test [1] is less than 20 nM; in test [2], 100 to 1000 nM.

On to `Cc1cc(Cn2ncc3c(-c4cc(C#N)ccn4)nc(N)nc32)ccc1N` [Compound 228, 2-(6-amino-1-(4-amino-3-methylbenzyl)-1H-pyrazolo[3,4-d]pyrimidine-4-yl)isonicotinonitrile], for which the Ki was in the range of 20 to 200 nM in test [1] and 100 to 1000 nM in test [2].

Consider `Cc1cc(Cn2ncc3c(-c4cncc(C#N)c4)nc(N)nc32)ccc1N` [Compound 229, 5-(6-amino-1-(4-amino-3-methylbenzyl)-1H-pyrazolo[3,4-d]pyrimidine-4-yl)nicotinonitrile], for which the Ki was 1000 to 5000 nM in test [1] and more than 10000 nM in test [2].

In the case of `Cc1cc(Cn2ncc3c(-c4ccnc(C#N)c4)nc(N)nc32)ccc1N` [Compound 230, 4-(6-amino-1-(4-amino-3-methylbenzyl)-1H-pyrazolo[3,4-d]pyrimidine-4-yl)picolinonitrile], the inhibition constant (Ki) in test [1] is 1000 to 5000 nM; in test [2] it was more than 10000 nM.

As to `CCn1c(=O)c2c(nc(/C=C/c3ccc(OC)c(OC)c3)n2C)n(CC)c1=O` [Istradefylline, reference compound], the Ki in test [2] lay in the range of 100 to 1000 nM.
